The record followed here is patent publication US11414429B2, “Compound or pharmaceutically acceptable salt thereof” (RIKEN, priority 2016, dated 2022).

For one assay, the target named is T1, tankyrase 1 (TNKS 1) (Homo sapiens, UniProt O95271).
T1 construct: 1,024-1,327aa; made in house; host or cells: cell-free protein synthesis system
Description: Tankyrase inhibitory activity test (ELISA, self-polyADP ribosylation), tankyrase 1. It is filed as biochemical. Conditions: tankyrase 1, ELISA, self-polyADP ribosylation; read-out: TNKS1 inhibitory activity (IC50 class). The method, then:
(§1) (Test Example 1) Tankyrase Inhibitory Activity Test
(§2) For each of the compounds obtained in Examples (the test target compounds), the tankyrase inhibitory activity (an inhibitory activity against tankyrase 1 (TNKS 1) and an inhibitory activity against tankyrase 2 (TNKS 2)) was evaluated by measuring the enzymatic activity of tankyrase 1 and the enzymatic activity of tankyrase 2 by the ELISA technique using self-polyADP ribosylation as an index. First, Flag-tag fusion tankyrase 1 (1,024-1,327aa, SAM+PARP) and tankyrase 2 (613-1, 116aa, ANK5+SAM+PARP) were each synthesized by a cell-free protein synthesis system and diluted with a Tris buffer (50 mM Tris-HCl (pH 8.0), 150 mM NaCl, 10% glycerol). Then, 50 μL of the diluted tankyrase 1 or tankyrase 2 was added to a plate on which the anti-FLAGM 2 monoclonal antibody was immobilized (Anti-FLAG high sensitivity M2 coated plate) (SIGMA Corporation), and was allowed to stand at 4° C. overnight. Thereafter, the plate was washed four times with a PBS buffer containing 0.1% Triton X-100 (PBST buffer).
(§3) Subsequently, the test target compound diluted with an assay buffer (50 mM Tris-HCl (pH 8.0), 4 mM MgCl2, 0.2 mM DTT) (using DMSO as a control) was added to each well of the plate and was allowed to stand at room temperature for 10 minutes. Thereafter, a biotin-labeled NAD solution (225 μM NAD, 25 μM 6-Biotin-17-NAD (Trevigen Inc.)) was added as a donor substrate and mixed with the resultant test target compound, and the reaction was allowed to proceed at 30° C. for 45 minutes. Instead of the biotin-labeled NAD solution, distilled water was added to blank wells. After the reaction, the plate was washed four times with the PBST buffer. Thereafter, HRP (horseradish peroxidase)-labeled streptavidin (Trevigen Inc.) diluted 1,000-fold with the PBS buffer was added to each well, and the reaction was allowed to proceed at room temperature for 20 minutes. After the plate was washed four times with the PBST buffer, a chemiluminescent substrate solution TACS-Sapphire (Trevigen Inc.) was added to each well and the reaction was allowed to proceed at room temperature for 20 minutes. Then, the chemiluminescence intensity was measured using a chemiluminescence measuring apparatus.
(§4) The residual enzyme activity in the presence of the test target compound was determined in accordance with the following formula. Based on the residual enzyme activity at multiple concentrations of the test target compound, an enzyme inhibition activity was calculated as a 50% inhibitory concentration (IC50 value) using data analysis software named Origin (LightStone Corp.).
A general note: An ELISA detects its analyte on a solid surface through an enzyme-linked reagent.

The target in another assay is T2, tankyrase 2 (TNKS 2) (Homo sapiens, UniProt Q9H2K2).
T2 construct: 613-1, 116aa; made in house; host or cells: cell-free protein synthesis system
T2 sequence (Q9H2K2 613-1166): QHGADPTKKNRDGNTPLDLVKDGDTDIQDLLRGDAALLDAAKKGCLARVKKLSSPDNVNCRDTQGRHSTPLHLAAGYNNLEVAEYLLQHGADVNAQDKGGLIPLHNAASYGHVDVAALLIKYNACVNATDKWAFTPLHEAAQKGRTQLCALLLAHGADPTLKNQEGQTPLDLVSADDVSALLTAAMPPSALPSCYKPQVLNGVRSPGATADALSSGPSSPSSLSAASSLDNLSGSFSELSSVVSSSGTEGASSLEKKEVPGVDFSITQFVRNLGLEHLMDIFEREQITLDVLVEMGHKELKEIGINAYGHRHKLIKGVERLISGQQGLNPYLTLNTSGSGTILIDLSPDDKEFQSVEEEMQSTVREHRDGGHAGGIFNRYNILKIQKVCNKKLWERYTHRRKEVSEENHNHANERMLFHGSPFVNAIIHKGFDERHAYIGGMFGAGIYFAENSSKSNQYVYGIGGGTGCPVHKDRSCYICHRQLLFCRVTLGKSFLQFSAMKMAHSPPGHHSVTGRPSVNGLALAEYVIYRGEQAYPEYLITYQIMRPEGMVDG
Put plainly: Tankyrase inhibitory activity test (ELISA, self-polyADP ribosylation), tankyrase 2. It is filed as biochemical. The note with it: tankyrase 2, ELISA, self-polyADP ribosylation; read-out: TNKS2 inhibitory activity (IC50 class). The method, then: as §1, §2, §3, §4

In assay [1] the test system is human colorectal cancer cell line, COLO-320DM. Description: Cell proliferation inhibitory activity test (Celltiter-Glo Luminescent Cell Viability Assay). The class given is cell-based. The note with it: COLO-320DM cells, 96 hours, read-out: COLO-320 DM cell proliferation inhibitory activity (GI50 class). The method, then: (Test Example 2) Cell Proliferation Inhibitory Activity Test
The cell proliferation inhibitory activity of the compound obtained in each of Examples against human colorectal cancer cell line, COLO-320DM was evaluated by Celltiter-Glo Luminescent Cell Viability Assay (Promega Corporation, G7573). The COLO-320 DM cells were cultured in a RPMI-1640 medium (Wako Pure Chemical Industries, Ltd., 189-02025) containing 10% fetal bovine serum and 2 mM of glutamine. The cultured cells were washed with PBS and then detached with trypsin/EDTA to prepare a cell solution containing 3×10^4 cells/mL.
Next, the cell solution was seeded in a 96 well microplate (Thermo/Nunc, 136101) in an amount of 70 μL/well and was cultured overnight under conditions at 37° C. with 5% CO2. On the next day, 10 μL/well of a solution in which the test target compound (DMSO solution) was diluted with the cell culture medium (a final DMSO concentration of 1%) was added and the reaction was allowed to proceed under conditions at 37° C. with 5% CO2 for 96 hours (a 1% DMSO solution was used as a control). Subsequently, 80 μL/well of Celltiter-Glo Luminescent Cell Viability Assay reagent (Promega Corporation, G7573) was added, followed by agitation for 2 minutes with a shaker under shielding with aluminum foil. Thereafter, the resultant solution was allowed to stand for reaction at room temperature for 10 minutes.
After that, the luminescent signal was measured with a luminometer (Biotech, Synergy). The cell proliferation inhibitory activity was evaluated by obtaining a percentage of a cell proliferation volume of each compound-added group with respect to a cell proliferation volume (100%) of a control group in which no test target component solution was added, and calculating a value of compound concentration (GI50) required to reduce the remaining cell volume to 50% of the remaining cell volume of the control. […] The results are shown in Tables 120 to 123 together with the results of the tankyrase inhibition activity test.

T1 sequence (O95271 1024-1327): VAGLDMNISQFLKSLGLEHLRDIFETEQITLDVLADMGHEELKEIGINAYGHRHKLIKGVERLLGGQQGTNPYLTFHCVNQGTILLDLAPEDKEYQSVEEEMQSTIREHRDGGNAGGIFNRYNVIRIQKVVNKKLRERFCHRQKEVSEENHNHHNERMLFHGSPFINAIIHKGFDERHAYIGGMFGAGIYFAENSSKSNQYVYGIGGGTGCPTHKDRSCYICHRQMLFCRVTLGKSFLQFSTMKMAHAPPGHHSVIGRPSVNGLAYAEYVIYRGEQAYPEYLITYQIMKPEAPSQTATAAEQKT

Usually IC50 stands for the concentration that gives 50% inhibition. For the molecule `O=C1N(Cc2cccnc2)c2cc(F)cc(F)c2C12CCN(c1nc3c(c(=O)[nH]1)CCCC3)CC2` [Example 333, 4,6-difluoro-1′-(4-oxo-3,4,5,6,7,8-hexahydro-quinazolin-2-yl)-1-(pyridin-3-ylmethyl) spiro[indoline-3,4′-piperidin]-2-one], the IC50 on tankyrase 1 (TNKS 1) and on tankyrase 2 (TNKS 2) was below 20 nM each time. Moreover, in assay [1], the GI50 was 100 to 600 nM.
Regarding `CN1C(=O)C2(CCN(c3nc4c(c(=O)[nH]3)CCCC4)CC2)c2c(Cl)cc(OCCCN3CCOCC3)cc21` [Example 334], the IC50 on tankyrase 1 (TNKS 1) and on tankyrase 2 (TNKS 2) was below 20 nM throughout. Further, in assay [1], the GI50 fell in the range of 600 to 1000 nM.
In the case of `CN1CC2(CCN(c3nc4c(c(=O)[nH]3)CCCN4C)CC2)c2c(F)cc(F)cc21` [Example 337, 2-(4,6-difluoro-1-methylspiro [indoline-3,4′-piperidin]-1′-yl)-8-methyl-5,6,7,8-tetrahy-dropyrido [2,3-d] pyrimidin-4(3H)-one], the concentration for half-maximal inhibition (IC50) at tankyrase 1 (TNKS 1) and at tankyrase 2 (TNKS 2) was below 20 nM each time. Further, the GI50 in assay [1] is 100 to 600 nM.
With `CN1CCCc2c1nc(N1CCC3(CC1)CN(CCO)c1cc(F)cc(F)c13)[nH]c2=O` [Example 338, 2-[4,6-difluoro-1-(2-hydroxyethyl)spiro [indoline-3,4′-piperidin]-1′-yl]-8-methyl-5,6,7,8-tetrahydro-pyrido [2,3-d] pyrimidin-4(3H)-one], the IC50 on tankyrase 1 (TNKS 1) is 20 to 200 nM; at tankyrase 2 (TNKS 2), below 20 nM. Further, the GI50 in assay [1] is 100 to 600 nM.
Turning to `CN1CCCc2c1nc(N1CCC3(CC1)C(=O)N(C)c1cc(F)cc(F)c13)[nH]c2=O` [Example 339, 4,6-difluoro-1-methyl-1′-(8-methyl-4-oxo-3,4,5,6,7,8-hexahydro-pyrido[2,3-d]pyrimidin-2-yl)spiro [indoline-3,4′-piperidin]-2-one], the IC50 on tankyrase 1 (TNKS 1) and on tankyrase 2 (TNKS 2) was below 20 nM each time. Further, the GI50 in assay [1] was 100 to 600 nM.
In the case of `CN1CCCc2c1nc(N1CCC3(CC1)C(=O)N(CCO)c1cc(F)cc(F)c13)[nH]c2=O` [Example 340, 4,6-difluoro-1-(2-hydroxyethyl)-1′-(8-methyl-4-oxo-3,4,5,6,7,8-hexahydro-pyrido[2,3-d]pyrimidin-2-yl)spiro [indoline-3,4′-piperidin]-2-one], the IC50 on tankyrase 1 (TNKS 1) and at tankyrase 2 (TNKS 2) was below 20 nM each time. For the same molecule, the GI50 in assay [1] was 100 to 600 nM.
On to `O=c1[nH]c(N2CCC3(CC2)CN(Cc2ccccc2F)c2cc(F)cc(F)c23)nc2c1CCCC2` [Example 341, 2-[4,6-difluoro-1-(2-fluorobenzyl)spiro [indoline-3,4′-piperidin]-1′-yl]-5,6,7,8-tetrahy-droquinazolin-4(3H)-one], for which the IC50 at tankyrase 1 (TNKS 1) and at tankyrase 2 (TNKS 2) was 20 to 200 nM in each case. In assay [1], the GI50 was in the range of 600 to 1000 nM.
Regarding `O=c1[nH]c(N2CCC3(CC2)CN(Cc2cccc(F)c2)c2cc(F)cc(F)c23)nc2c1CCCC2` [Example 342, 2-[4,6-difluoro-1-(3-fluorobenzyl)spiro [indoline-3,4′-piperidin]-1′-yl]-5,6,7,8-tetrahy-droquinazolin-4(3H)-one], the IC50 on tankyrase 1 (TNKS 1) was 20 to 200 nM; on tankyrase 2 (TNKS 2) it was below 20 nM. Besides, in assay [1], the GI50 is 600 to 1000 nM.
Turning to `O=c1[nH]c(N2CCC3(CC2)CN(Cc2ccc(Cl)nc2)c2cc(F)cc(F)c23)nc2c1CCCC2` [Example 344, 2-{1-[(6-chloropyridin-3-yl)methyl]-4,6-di-fluorospiro[indoline-3,4′-piperidin]-1′-yl]-5,6,7,8-tetrahydroquin-azolin-4(3H)-one], the IC50 at tankyrase 1 (TNKS 1) and on tankyrase 2 (TNKS 2) was below 20 nM in each case. Also, the GI50 in assay [1] lay in the range of 100 to 600 nM.
Turning to `Cn1ccc2c(=O)[nH]c(N3CCC4(CC3)CN(Cc3cccnc3)c3cc(F)cc(F)c34)nc21` [Example 347, 2-[4,6-difluoro-1-(pyridin-3-ylmethyl)spiro [indoline-3,4′-piperidine]-1′-yl]-7-methyl-3,7-dihydro-4H-pyrrolo [2,3-d]pyrimidin-4-one], the IC50 at tankyrase 1 (TNKS 1) and on tankyrase 2 (TNKS 2) was 20 to 200 nM throughout. Moreover, the GI50 in assay [1] fell in the range of 600 to 1000 nM.
Take `CN1CCCc2c1nc(N1CCC3(CC1)CN(Cc1cccnc1)c1cc(F)cc(F)c13)[nH]c2=O` [Example 351, 2-[4,6-difluoro-1-(pyridin-3-ylmethyl)spiro [indoline-3,4′-piperi-dine]-1′-yl]-8-methyl-5,6,7,8-tetrahydro pyrido [2,3-d]pyrimidin-4(3H)-one]: the concentration for half-maximal inhibition (IC50) at tankyrase 1 (TNKS 1) is 20 to 200 nM; at tankyrase 2 (TNKS 2), below 20 nM. Also, in assay [1], the GI50 is 100 to 600 nM.
On the same counts, the results for `CN1CCCc2c1nc(N1CCC3(CC1)C(=O)N(C)c1cc(O)cc(F)c13)[nH]c2=O` [Example 354, 4-fluoro-6-hydroxy-1-methyl-1′-(8-methyl-4-oxo-3,4,5,6,7,8-hexahydropyrido [2,3-d]pyrimidin-2-yl) spiro[indoline-3,4′-piperidin]-2-one] are below 20 nM, below 20 nM and 100 to 600 nM.
Taken in the same sequence, the figures for `CN1CCCc2c1nc(N1CCC3(CC1)C(=O)N(C)c1cc(OCCO)cc(F)c13)[nH]c2=O` [Example 356, 4-fluoro-6-(2-hydroxy-ethoxy)-1-methyl-1′-(8-methyl-4-oxo-3,4,5,6,7,8-hexahydro-pyrido[2,3-d]pyrimidin-2-yl) spiro [indoline-3,4′-piperidin]-2-one] were below 20 nM, below 20 nM and 100 to 600 nM.
Consider `CN(C)CCOc1cc(F)c2c(c1)N(C)C(=O)C21CCN(c2nc3c(c(=O)[nH]2)CCCN3C)CC1` [Example 357, 6-[2-(dimethylamino)ethoxy]-4-fluoro-1-methyl-1′-(8-methyl-4-oxo-3,4,5,6,7,8-hexa-hydropyrido [2,3-d]pyrimidin-2-yl) spiro[indoline-3,4′-piperidin]-2-one], for which the IC50 on tankyrase 1 (TNKS 1) and on tankyrase 2 (TNKS 2) was below 20 nM throughout. Besides, in assay [1], the GI50 was in the range of 600 to 1000 nM.
Take `CN1CCCc2c1nc(N1CCC3(CC1)C(=O)N(C)c1cc(OCCN4CCOCC4)cc(F)c13)[nH]c2=O` [Example 360, 4-fluoro-1-methyl-1′-(8-methyl-4-oxo-3,4,5,6,7,8-hexahydropy-rido[2,3-d]pyrimidin-2-yl)-6-(2-morpho-linoethoxy) spiro [indoline-3,4′-piperidin]-2-one]: the IC50 on tankyrase 1 (TNKS 1) and on tankyrase 2 (TNKS 2) was below 20 nM throughout. Moreover, the GI50 in assay [1] is 100 to 600 nM.
For `CN1CCCc2c1nc(N1CCC3(CC1)C(=O)N(C)c1cc(OCCN4CCS(=O)(=O)CC4)cc(F)c13)[nH]c2=O` [Example 361, 6-[2-(1,1-dioxidothio-morpholino)ethoxy]-4-fluoro-1-methyl-1′-(8-methyl-4-oxo-3,4,5,6,7,8-hexahydropy-rido[2,3-d]pyrimidin-2-yl)spiro [indoline-3,4′-piperidin]-2-one], the IC50 at tankyrase 1 (TNKS 1) and on tankyrase 2 (TNKS 2) was below 20 nM in each case. The GI50 in assay [1] lay within 600 to 1000 nM.
